Key:
Hepatitis B virus [1] = test: Antiviral activity against Hepatitis B virus infected human HepG2.2.15 cells assessed as HBeAg secretion at 50 […] after 9 days by ELISA; format: functional; settings: HepG2 2.2.15, 216 h
Hepatitis B virus [2] = test: Antiviral activity against Hepatitis B virus infected human HepG2.2.15 cells assessed as HBsAg secretion at 50 […] after 9 days by ELISA; format: functional; settings: HepG2 2.2.15, 216 h
[3] = Cytotoxicity against human HepG2(2.2.15) cells at 200 ug/mL by MTT assay; format: cell-based; settings: read-out: GI
Hepatitis B virus [4] = test: Antiviral activity against Hepatitis B virus infected human HepG2.2.15 cells assessed as HBeAg secretion at 100 […] after 9 days by ELISA; format: functional; settings: HepG2 2.2.15, 216 h
Hepatitis B virus [5] = test: Antiviral activity against Hepatitis B virus infected human HepG2.2.15 cells assessed as HBeAg secretion at 25 […] after 9 days by ELISA; format: functional; settings: HepG2 2.2.15, 216 h
Hepatitis B virus [6] = test: Antiviral activity against Hepatitis B virus infected human HepG2.2.15 cells assessed as HBsAg secretion at 100 […] after 9 days by ELISA; format: functional; settings: HepG2 2.2.15, 216 h
Hepatitis B virus [7] = test: Antiviral activity against Hepatitis B virus infected human HepG2.2.15 cells assessed as HBsAg secretion at 25 […] after 9 days by ELISA; format: functional; settings: HepG2 2.2.15, 216 h
[8] = Cytotoxicity against human HepG2(2.2.15) cells at 100 ug/mL by MTT assay; format: cell-based; settings: read-out: GI
Hepatitis B virus [9] = test: Antiviral activity against Hepatitis B virus infected human HepG2.2.15 cells assessed as HBsAg secretion at 200 […] after 9 days by ELISA; format: functional; settings: HepG2 2.2.15, 216 h
Hepatitis B virus [10] = test: Antiviral activity against Hepatitis B virus infected human HepG2.2.15 cells assessed as HBeAg secretion at 200 […] after 9 days by ELISA; format: functional; settings: HepG2 2.2.15, 216 h
[11] = Cytotoxicity against human HepG2(2.2.15) cells at 50 ug/mL by MTT assay; format: cell-based; settings: read-out: GI

COc1cc2c(c(OC)c1OC)-c1c(cc3c(c1O)OCO3)C[C@H](C)[C@@](C)(O)[C@H]2OC(=O)C(C)C [SCHISANWILSONIN E]
inhibition in vivo at 0.05 mg/kg (Hepatitis B virus [1]): 0% | inhibition in vivo at 0.05 mg/kg (Hepatitis B virus [2]): 0% | inhibition at 200 ug/mL [3]: ≥ 25% | inhibition in vivo at 0.1 mg/kg (Hepatitis B virus [4]): 2% | inhibition in vivo at 0.025 mg/kg (Hepatitis B virus [5]): 0% | inhibition in vivo at 0.1 mg/kg (Hepatitis B virus [6]): 0% | inhibition in vivo at 0.025 mg/kg (Hepatitis B virus [7]): 0%

C/C=C(\C)C(=O)O[C@H]1c2cc(OC)c(OC)c(OC)c2-c2c(cc3c(c2O)OCO3)C[C@H](C)[C@@]1(C)O [SCHISANWILSONIN B]
inhibition in vivo at 0.05 mg/kg (Hepatitis B virus [1]): 9.2% | inhibition in vivo at 0.05 mg/kg (Hepatitis B virus [2]): 0% | inhibition at 200 ug/mL [3]: ≥ 25% | inhibition in vivo at 0.1 mg/kg (Hepatitis B virus [4]): 18.1% | inhibition in vivo at 0.025 mg/kg (Hepatitis B virus [5]): 0.6% | inhibition in vivo at 0.1 mg/kg (Hepatitis B virus [6]): 7.4% | inhibition in vivo at 0.025 mg/kg (Hepatitis B virus [7]): 0%

COc1cc2c(c(OC)c1OC)-c1c(cc3c(c1O)OCO3)C[C@H](C)[C@@](C)(O)[C@H]2OC(C)=O [SCHISANWILSONIN F]
inhibition in vivo at 0.05 mg/kg (Hepatitis B virus [1]): 6.7% | inhibition in vivo at 0.05 mg/kg (Hepatitis B virus [2]): 0% | inhibition at 200 ug/mL [3]: ≥ 25% | inhibition in vivo at 0.1 mg/kg (Hepatitis B virus [4]): 9.3% | inhibition in vivo at 0.025 mg/kg (Hepatitis B virus [5]): 5.5% | inhibition in vivo at 0.1 mg/kg (Hepatitis B virus [6]): 0% | inhibition in vivo at 0.025 mg/kg (Hepatitis B virus [7]): 0%

C/C=C(/C)C(=O)O[C@H]1c2cc(OC)c(OC)c(OC)c2-c2c(cc3c(c2O)OCO3)C[C@H](C)[C@@]1(C)O [SCHISANWILSONIN A]
inhibition in vivo at 0.05 mg/kg (Hepatitis B virus [1]): 14% | inhibition in vivo at 0.05 mg/kg (Hepatitis B virus [2]): 5.3% | inhibition at 200 ug/mL [3]: ≥ 25% | inhibition at 100 ug/mL [8]: ≥ 25% | inhibition in vivo at 0.025 mg/kg (Hepatitis B virus [5]): 0% | inhibition in vivo at 0.025 mg/kg (Hepatitis B virus [7]): 0%

COc1cc2c(c(OC)c1OC)-c1c(cc(O)c(OC)c1O)C[C@H](C)[C@@](C)(O)[C@H]2OC(=O)c1ccccc1 [SCHISANWILSONIN G]
inhibition in vivo at 0.05 mg/kg (Hepatitis B virus [1]): 1.6% | inhibition in vivo at 0.05 mg/kg (Hepatitis B virus [2]): 0% | inhibition in vivo at 0.2 mg/kg (Hepatitis B virus [9]): 0% | inhibition in vivo at 0.2 mg/kg (Hepatitis B virus [10]): 5.6% | inhibition in vivo at 0.1 mg/kg (Hepatitis B virus [4]): 3.4% | inhibition in vivo at 0.025 mg/kg (Hepatitis B virus [5]): 0% | inhibition in vivo at 0.1 mg/kg (Hepatitis B virus [6]): 0% | inhibition in vivo at 0.025 mg/kg (Hepatitis B virus [7]): 0%

COc1cc2c(c(OC)c1OC)-c1c(cc3c(c1O)OCO3)C[C@H](C)[C@@](C)(O)[C@H]2OC(=O)c1ccccc1 [SCHISANWILSONIN C]
inhibition in vivo at 0.05 mg/kg (Hepatitis B virus [1]): 11.7% | inhibition in vivo at 0.05 mg/kg (Hepatitis B virus [2]): 0% | inhibition at 200 ug/mL [3]: ≥ 25% | inhibition at 100 ug/mL [8]: ≥ 25% | inhibition in vivo at 0.025 mg/kg (Hepatitis B virus [5]): 11.6% | inhibition in vivo at 0.025 mg/kg (Hepatitis B virus [7]): 0%

COc1cc2c(c(OC)c1OC)-c1c(cc(OC)c(OC)c1OC)C[C@H](C)[C@H](C)C2 [SCHISANDRIN A]
inhibition in vivo at 0.05 mg/kg (Hepatitis B virus [1]): 0% | inhibition in vivo at 0.05 mg/kg (Hepatitis B virus [2]): 8.8% | inhibition in vivo at 0.2 mg/kg (Hepatitis B virus [9]): 50.3% | inhibition in vivo at 0.2 mg/kg (Hepatitis B virus [10]): 15.9% | inhibition in vivo at 0.1 mg/kg (Hepatitis B virus [4]): 11.9% | inhibition in vivo at 0.025 mg/kg (Hepatitis B virus [5]): 0% | inhibition in vivo at 0.1 mg/kg (Hepatitis B virus [6]): 30.9% | inhibition in vivo at 0.025 mg/kg (Hepatitis B virus [7]): 0%

COc1cc2c(c(O)c1OC)-c1c(cc(OC)c(OC)c1OC)C[C@](C)(O)[C@@H](C)C2 [GOMISIN H]
inhibition in vivo at 0.05 mg/kg (Hepatitis B virus [1]): 0% | inhibition in vivo at 0.05 mg/kg (Hepatitis B virus [2]): 0% | inhibition in vivo at 0.2 mg/kg (Hepatitis B virus [9]): 11.6% | inhibition in vivo at 0.2 mg/kg (Hepatitis B virus [10]): 1.6% | inhibition in vivo at 0.1 mg/kg (Hepatitis B virus [4]): 0% | inhibition in vivo at 0.025 mg/kg (Hepatitis B virus [5]): 0% | inhibition in vivo at 0.1 mg/kg (Hepatitis B virus [6]): 3.7% | inhibition in vivo at 0.025 mg/kg (Hepatitis B virus [7]): 0%

Nc1ccn([C@@H]2CS[C@H](CO)O2)c(=O)n1 [LAMIVUDINE]
inhibition in vivo at 0.2 mg/kg (Hepatitis B virus [9]): 28.6% | inhibition in vivo at 0.2 mg/kg (Hepatitis B virus [10]): 34.5%

C/C=C(\C)C(=O)O[C@H]1c2cc(OC)c(OC)c(OC)c2-c2c(cc(O)c(OC)c2O)C[C@H](C)[C@@]1(C)O [SCHISANWILSONIN D]
inhibition in vivo at 0.05 mg/kg (Hepatitis B virus [1]): 16.5% | inhibition in vivo at 0.05 mg/kg (Hepatitis B virus [2]): 19.5% | inhibition at 200 ug/mL [3]: ≥ 25% | inhibition in vivo at 0.1 mg/kg (Hepatitis B virus [4]): 21.6% | inhibition in vivo at 0.025 mg/kg (Hepatitis B virus [5]): 6.2% | inhibition in vivo at 0.1 mg/kg (Hepatitis B virus [6]): 28.8% | inhibition in vivo at 0.025 mg/kg (Hepatitis B virus [7]): 12.5%

COc1cc2c(c(O)c1OC)-c1c(cc(OC)c(OC)c1OC)C[C@@H](C)[C@@H](C)C2 [SCHISANHENOL]
inhibition at 200 ug/mL [3]: ≥ 25% | inhibition at 50 ug/mL [11]: ≥ 25% | inhibition at 100 ug/mL [8]: ≥ 25% | inhibition in vivo at 0.025 mg/kg (Hepatitis B virus [5]): 0% | inhibition in vivo at 0.025 mg/kg (Hepatitis B virus [7]): 45%
